Reference: PMC12563652 (International Journal of Molecular Sciences, 2025)

Tests used:
[1] = target: T1, α2B-adrenoceptor (Homo sapiens, UniProt P18089); assay: α2B-adrenoceptor intrinsic activity, antagonist mode (AequoScreen); assay type: cell-based; settings: n.a. = no activity at 10–5 M; read-out: α2B Ant IC50
T1 sequence (P18089 1-450): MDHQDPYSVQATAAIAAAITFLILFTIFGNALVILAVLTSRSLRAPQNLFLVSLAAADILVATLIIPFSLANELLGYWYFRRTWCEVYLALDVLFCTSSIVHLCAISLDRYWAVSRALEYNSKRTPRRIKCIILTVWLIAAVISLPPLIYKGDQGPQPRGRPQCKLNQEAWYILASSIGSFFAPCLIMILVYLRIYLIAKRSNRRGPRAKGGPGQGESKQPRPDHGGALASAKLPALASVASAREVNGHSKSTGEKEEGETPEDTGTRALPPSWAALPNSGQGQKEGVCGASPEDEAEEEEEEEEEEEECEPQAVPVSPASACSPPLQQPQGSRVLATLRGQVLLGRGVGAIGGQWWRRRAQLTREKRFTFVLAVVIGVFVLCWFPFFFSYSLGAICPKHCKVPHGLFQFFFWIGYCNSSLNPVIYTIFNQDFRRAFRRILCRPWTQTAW
Protocol: The determination of intrinsic activity will be performed in accordance with the manufacturer’s Aequoscreen methodology—Perkin Elmer.
The cell density in the 96-well format was 5000 cells per well. Cell preparation for the assay was performed according to the manufacturer’s instructions for AequoScreen (PerkinElmer, Waltham, MA, USA). […] The cells suspension was applied onto the ligands with the injectors of the POLARstar optima reader (BMG Labtech, Ortenberg, Germany). […] The concentration and dilution series having four replicates were prepared as instructed in the AequoScreen Starter Kit Manual (PerkinElmer, Waltham, MA, USA). The wells received cell injections along with either the standard agonist or the compounds being evaluated, while the POLARstar optima reader documented the emitted light over a duration of 20 s. In the antagonist evaluation, cells were administered (50 μL) into the assay plate alongside antagonist solutions (50 μL). A single concentration of agonist (oxymetazoline) was injected (50 μL, final concentration EC80) into the preincubated (15–20 min) plate with cells and antagonist, and the emitted light was recorded for 20 s.

[2] = test system: Danio rerio larvae; assay: Nile red fluorescence fat metabolism assay in zebrafish larvae; assay type: in vivo; settings: 10 µg/mL, 48 h incubation of larvae
Protocol: The study was conducted based on the method described earlier by Jones et al.. Starting at 3 days after fertilization (dpf), larvae were placed into 6-well plates and incubated with the test solutions (compounds in E3: JP-14 at a concentration of 10 μg/mL or resveratrol or E3 alone) for 48 h. Resveratrol solution (20 μg/mL) was used as the reference compound. After 24 h, the solutions were replaced with new ones containing Nile red dye (9-diethylamino-5H-benzo[α]phenoxazine-5-one, Pol-aura, Poland) at a concentration of 100 ng/mL. Nile red is a selective fluorescent lipid dye used to stain lipid droplets. Incubation with the dye was therefore 24 h. Stock solution of Nile red was prepared earlier by dissolving it in acetone to a concentration of 500 μg/mL. After the incubation period, the larvae were rinsed 3 times with 0.1 M phosphate-buffered, pH 7.4 (PBS, Sigma-Aldrich, Schnelldorf, Germany) and anesthetized with cold […] tricaine solution (Sigma-Aldrich, Schnelldorf, Germany). Next, they were visualized under a fluorescence microscope (Zeiss.Discovery.V8, Zeiss, Oberkochen, Germany) and analyzed with ImageJ FIJI program (version 2.17.0).

[H]/N=C(\N)NN=Cc1c(Cl)cncc1Cl [JP-14, (E)-2-((3,5-Dichloropyridin-4-yl)Methylene)Hydrazine-1-Carboximidamide] was tested, and the IC50 [1] was 622 nM and the “Nile red detectable fat” value [2] was “decrease”.
